Data published in patent US10442788B2, “Hepatitis B antiviral agents” (ENANTA PHARMACEUTICALS, INC., priority 2015, dated 2019).
Like-named read-outs stand apart in the source and are kept apart here.

Tested on: HBV
Test: HepAD38 antiviral assay: reduction of viral product accumulation (virion DNA by qPCR, HBsAg or HBeAg by ELISA)
Format: cell-based
Settings: Hepatitis B virus
Protocol: Methods: HepAD38 cells are maintained as previously reported (Ladner et al, Antimicrob. Agents Chemother. 1997, […], 1715). Briefly, cells are passaged upon attaining confluency in DMEM/F12 media in the presence of 10% FBS, Penn/Strep, 250 μg/mL G418, and 1 ug/ml tetracycline. Novel compounds are screened by first washing cells three times with PBS to remove tetracycline, and plating in 96 well plates at 35,000 cells/well. Compounds dissolved in DMSO are then diluted 1:200 into wells containing cells. Five days after compound addition, material is harvested for analysis. For an extended 8 day analysis, cells are plated and treated as described above, but media and compound are refreshed on d2 and d5 post initial treatment.
On harvest day, virion DNA is obtained by lysing with Sidestep Lysis and Stabilization Buffer and then quantified via quantitative real time PCR. Commercially available ELISA kits are used to quantitate the viral proteins HBsAg (Alpco) or HbeAg (US Biological) by following the manufacturer's recommended protocol after diluting samples to match the linear range of their respective assays. Irrespective of readout, compound concentrations that reduce viral product accumulation in the cell lysates or supernatants by 50% relative to no drug controls (EC50) are reported; EC50 ranges are as follows: A<1 μM; B 1-10 μM; C>10 μM.

[1] = 120 h, HepAD38 cells, five days after compound addition, 50% reduction of viral product accumulation relative to no drug controls, read-out: HepAD38 EC50

Compound | EC50 [1] | EC50 (HePAD38, 120 h, read-out: HepAD38 EC50 (μM))
O=S(=O)(c1cc(-c2nc(-c3nccs3)c[nH]2)ccc1Cl)N1CCC(O)CC1 [Example 81] | > 10 µM | –
O=S(=O)(c1cc(-c2nc(-c3ccc(F)cc3F)c[nH]2)ccc1Cl)N1CCC(O)CC1 [Example 84] | 1 to 10 µM | –
CC1(C)CN(S(=O)(=O)c2cc(-c3ncc(-c4ccc(Br)c(F)c4)[nH]3)ccc2Cl)CCC1O (centres unmarked) [Example 258] | < 1 µM | –
O=S(=O)(c1cc(-c2ncc(-c3ccc(Br)c(F)c3)[nH]2)ccc1Cl)N1CCC[C@H](O)C1 [Example 226] | < 1 µM | –
COC(=O)NCCC(C)NS(=O)(=O)c1cc(-c2nc(-c3ccc(Br)c(F)c3)c[nH]2)ccc1Cl (centres unmarked) [Example 172] | < 1 µM | –
O=S(=O)(c1cc(-c2nc(-c3ccc(C4CC4)c(Cl)c3)c[nH]2)ccc1Cl)N1CCC(O)CC1 [Example 157] | < 1 µM | –
O=S(=O)(c1cc(-c2nc(-c3ccc(Br)c(F)c3)c(Cl)[nH]2)ccc1Cl)N1CCC(O)CC1 [Example 184] | > 10 µM | –
O=S(=O)(c1cc(-c2ncc(-c3ccc(Br)c(F)c3)[nH]2)ccc1Cl)N1CC[C@H](O)[C@@H](O)C1 [Example 231] | < 1 µM | –
O=S(=O)(c1cc(-c2nc(-c3ccc(Br)c(F)c3)c[nH]2)ccc1Cl)N1CCC[C@H](O)CC1 [Example 235] | < 1 µM | –
O=S(=O)(N[C@H]1CC[C@H](O)CC1)c1cc(-c2ncc(-c3ccc(Br)c(F)c3)[nH]2)ccc1Cl [Example 212] | < 1 µM | –
CC(C)(C)OC(=O)NCC1CCN(S(=O)(=O)c2cc(-c3nc(-c4ccc(Br)c(F)c4)c[nH]3)ccc2Cl)C1 (centres unmarked) [Example 199] | < 1 µM | –
O=S(=O)(c1cc(-c2ncc(-c3ccc(Br)c(F)c3)[nH]2)ccc1Cl)N1CCC[C@@H](CO)C1 [Example 261] | < 1 µM | –
O=C(Nc1ccccc1)N1CCN(S(=O)(=O)c2cc(-c3nc(-c4ccc(Br)c(F)c4)c[nH]3)ccc2Cl)CC1 [Example 206] | > 10 µM | –
CC(C)(C)c1cccc(-c2c[nH]c(-c3ccc(Cl)c(S(=O)(=O)N4CCC(O)CC4)c3)n2)c1 [Example 162] | 1 to 10 µM | –
O=S(=O)(c1cc(-c2ncc(-c3ccc(Br)c(F)c3)[nH]2)ccc1Cl)N1C[C@@H]2[C@@H](O)[C@@H]2C1 [Example 243] | < 1 µM | –
O=S(=O)(c1cc(-c2ncc(-c3ccc(Br)c(F)c3)[nH]2)ccc1Cl)N1CCC[C@@H](O)C1 [Example 268] | < 1 µM | –
O=C(CCCNS(=O)(=O)c1cc(-c2nc(-c3ccc(Br)c(F)c3)c[nH]2)ccc1Cl)Nc1ccccc1 [Example 194] | < 1 µM | –
O=S(=O)(c1cc(-c2nc(-c3cccc(CC(F)(F)F)c3)c[nH]2)ccc1Cl)N1CCC(O)CC1 [Example 239] | > 10 µM | –
CC(C)(C)OC(=O)NC1CN(S(=O)(=O)c2cc(-c3ncc(-c4ccc(Br)c(F)c4)[nH]3)ccc2Cl)C1 [Example 183] | < 1 µM | –
O=S(=O)(NCCCCc1nnn[nH]1)c1cc(-c2nc(-c3ccc(Br)c(F)c3)c[nH]2)ccc1Cl [Example 215] | > 10 µM | –
CC1CC(O)CCN1S(=O)(=O)c1cc(-c2ncc(-c3ccc(Br)c(F)c3)[nH]2)ccc1Cl (centres unmarked) [Example 209] | < 1 µM | –
O=C(NCCCNS(=O)(=O)c1cc(-c2nc(-c3ccc(Br)c(F)c3)c[nH]2)ccc1Cl)Oc1ccccc1 [Example 179] | – | < 1 µM
COCCN(C)S(=O)(=O)c1cc(-c2ncc(-c3ccc(F)c(Br)c3)[nH]2)ccc1Cl [Example 77] | > 10 µM | –
COCC(C)NS(=O)(=O)c1cc(-c2nc(-c3ccc(Br)c(F)c3)c[nH]2)ccc1Cl (centres unmarked) [Example 164] | 1 to 10 µM | –
O=S(=O)(c1cc(-c2ncc(-c3ccc(Br)c(F)c3)[nH]2)ccc1Cl)N1CCC2CC2(O)C1 (centres unmarked) [Example 257] | < 1 µM | –

Compound | EC50 [1] | EC50 (HePAD38, 120 h, read-out: HepAD38 EC50 (μM))
O=S(=O)(c1cc(-c2nc(-c3ccc(Br)c(F)c3)c[nH]2)ccc1Cl)N1CCN(c2cccnc2)CC1 [Example 195] | < 1 µM | –
O=C(NCCCNS(=O)(=O)c1cc(-c2nc(-c3ccc(Br)c(F)c3)c[nH]2)ccc1Cl)OCc1ccccc1 [Example 180] | < 1 µM | –
[2H]C([2H])([2H])Oc1cccc(-c2c[nH]c(-c3ccc(Cl)c(S(=O)(=O)N4CCC(O)CC4)c3)n2)c1 [Example 203] | > 10 µM | –
O=S(=O)(NC[C@H](O)CO)c1cc(-c2ncc(-c3ccc(Br)c(F)c3)[nH]2)ccc1Cl [Example 213] | < 1 µM | –
O=S(=O)(c1cc(-c2ncc(-c3ccc(Br)c(F)c3)[nH]2)ccc1Cl)N1C[C@@H](O)[C@@H](O)C1 [Example 228] | < 1 µM | –
C[C@H](N)C(=O)OC1CCN(S(=O)(=O)c2cc(-c3nc(-c4ccc(F)c(Br)c4)c[nH]3)ccc2Cl)CC1 [Example 160] | 1 to 10 µM | –
COC(=O)NCC(=O)NCCCNS(=O)(=O)c1cc(-c2nc(-c3ccc(Br)c(F)c3)c[nH]2)ccc1Cl [Example 201] | 1 to 10 µM | –
CC(C)(C)OC(=O)NCCCCCCCNS(=O)(=O)c1cc(-c2nc(-c3ccc(Br)c(F)c3)c[nH]2)ccc1Cl [Example 252] | < 1 µM | –
O=S(=O)(c1cc(-c2ncc(-c3ccc(Br)c(F)c3)[nH]2)ccc1Cl)N1CC[C@@H](O)C1 [Example 247] | > 10 µM | –
O=C(NCCCNS(=O)(=O)c1cc(-c2nc(-c3ccc(Br)c(F)c3)c[nH]2)ccc1Cl)c1ccccc1 [Example 181] | < 1 µM | –
O=S(=O)(c1cc(-c2nc(-c3ccc(Br)c(F)c3)c[nH]2)ccc1Cl)N1CCN(c2cc(F)ccn2)CC1 [Example 205] | < 1 µM | –
O=S(=O)(c1cc(-c2nc(-c3ccc(CC(F)(F)F)cc3)c[nH]2)ccc1Cl)N1CCC(O)CC1 [Example 238] | > 10 µM | –
O=S(=O)(c1cc(-c2nc(-c3ccc(Br)c(F)c3)c[nH]2)ccc1Cl)N1CCCOCC1 [Example 266] | < 1 µM | –
O=S(=O)(c1cc(-c2nc(-c3ccccc3Br)c[nH]2)ccc1Cl)N1CCC(O)CC1 [Example 74] | > 10 µM | –
O=C(Nc1ccccc1)C1CCN(S(=O)(=O)c2cc(-c3nc(-c4ccc(Br)c(F)c4)c[nH]3)ccc2Cl)CC1 [Example 166] | 1 to 10 µM | –
O=S(=O)(c1cc(-c2nc(-c3ccc(Br)c(F)c3)c[nH]2)ccc1Cl)N1CCCC[C@@H](O)C1 [Example 233] | < 1 µM | –
C[C@H](NC(=O)OC(C)(C)C)C(=O)OC1CCN(S(=O)(=O)c2cc(-c3nc(-c4ccc(F)c(Br)c4)c[nH]3)ccc2Cl)CC1 [Example 169] | < 1 µM | –
O=S(=O)(c1cc(-c2nc(-c3ccc(Br)c(F)c3)c[nH]2)ccc1Cl)N1CCN(c2ncccc2F)CC1 [Example 276] | < 1 µM | –
O=S(=O)(N[C@H]1CC[C@@H](O)CC1)c1cc(-c2ncc(-c3ccc(Br)c(F)c3)[nH]2)ccc1Cl [Example 227] | < 1 µM | –
N#Cc1ccc(-c2c[nH]c(-c3ccc(Cl)c(S(=O)(=O)N4CCC(O)CC4)c3)n2)cc1 [Example 97] | < 1 µM | –
O=S(=O)(c1cc(-c2nc(-c3ccc(C(F)(F)F)c(C4CC4)c3)c[nH]2)ccc1Cl)N1CCC(O)CC1 [Example 161] | < 1 µM | –
O=S(=O)(c1cc(-c2nc(-c3ccc(C(F)(F)F)c(Cl)c3)c[nH]2)ccc1Cl)N1CCC(O)CC1 [Example 151] | < 1 µM | –
COC(=O)NCC1CCN(S(=O)(=O)c2cc(-c3ncc(-c4ccc(Br)c(F)c4)[nH]3)ccc2Cl)C1 (centres unmarked) [Example 274] | < 1 µM | –
O=S(=O)(c1cc(-c2nc(-c3ccc(Br)c(F)c3)c[nH]2)ccc1Cl)N1CC[C@@H](CO)C1 [Example 253] | < 1 µM | –
O=S(=O)(c1cc(-c2nc(-c3ccc(Br)c(F)c3)c[nH]2)ccc1Cl)N1CCC(c2ccccn2)CC1 [Example 220] | < 1 µM | –
